For one experiment, the system named is E. faecium com15. Description: Syn-BNP MIC against ESKAPE pathogens: E. faecium. It is filed as cell-based, Enterococcus faecium. To be noted: for MIC: E. faecium com15, Gram-positive. The method, then:
(§1) All syn-BNPs, as well as the parent antibiotic albicidin were assayed for antimicrobial activity against the ESKAPE pathogens (Enterococcus faecium, Staphylococcus aureus, Klebsiella pneumoniae, Acinetobacter baumannii, Pseudomonas aeruginosa, and Enterobacter species), which are a collection of bacteria most commonly associated with antibacterial resistant nosocomial infections. […]

The test system of a further experiment is S. aureus SH1000. Description: Syn-BNP MIC against ESKAPE pathogens: S. aureus. The class given is cell-based, Staphylococcus aureus. To be noted: for MIC: S. aureus SH1000, Gram-positive. The method, then: as §1
For a further experiment, the system named is K. pneumoniae 10031. Description: Syn-BNP MIC against ESKAPE pathogens: K. pneumoniae. To be noted: for MIC: K. pneumoniae 10031, Gram-negative. It is filed as cell-based, Klebsiella pneumoniae. The method, then: (§2) All syn-BNPs, as well as the parent antibiotic albicidin were assayed for antimicrobial activity against the ESKAPE pathogens (Enterococcus faecium, Staphylococcus aureus, Klebsiella pneumoniae, Acinetobacter baumannii, Pseudomonas aeruginosa, and Enterobacter species), which are a collection of bacteria most commonly associated with antibacterial resistant nosocomial infections.

A further experiment deals with A. baumannii. Description: Syn-BNP MIC against ESKAPE pathogens: A. baumannii. The class given is cell-based, Acinetobacter baumannii. To be noted: for MIC: Gram-negative. The method, then: as §2
For the next experiment, the system named is P. aeruginosa. Description: Syn-BNP MIC against ESKAPE pathogens: P. aeruginosa. The class given is cell-based, Pseudomonas aeruginosa. To be noted: Gram-negative. The method, then: as §2
The test system of a further experiment is E. cloacae 13047. Description: Syn-BNP MIC against ESKAPE pathogens: E. cloacae. To be noted: E. cloacae 13047, Gram-negative. It is filed as cell-based, Enterobacter cloacae. As for the experimental part: as §2
The test system of a further experiment is E. coli 25922. Description: Syn-BNP MIC against E. coli. The class given is cell-based, Escherichia coli. To be noted: E. coli 25922, Gram-negative.
A further experiment concerns E. coli-BL21 (pET28c). It is filed as cell-based, Escherichia coli. To be noted: empty vector. An excerpt: (§3) As circumventing common antibiotic resistance mechanisms was likely to play a key role in the natural selection of antibiotic congeners, the present studies investigated whether some of the congeners evolved to evade AlbD-mediated cleavage. To determine the susceptibility of the herein described BGC-inspired analogs to AlbD encoded resistance, the MIC of each syn-BNP against E. coli engineered to express AlbD was compared to that of E. coli containing an empty expression vector.

Experiment [1] has as its system E. coli-BL21 (pET28c-AlbD). The class given is cell-based, Escherichia coli. To be noted: for Fold increase in MIC: AlbD expressing strain versus empty vector strain; for MIC: E. coli-BL21 (pET28c-AlbD); for susceptibility to AlbD encoded resistance: E. coli expressing AlbD versus empty vector.
Excerpt: as §3

A further experiment has as its target DNA gyrase (Escherichia coli, UniProt P0AES4+P0AES6). To be noted: FIG. 9. The source says:
Further studies are focused on an investigation of other mutations via a clinical introduction of this class of antibiotics.

In brackets after ≈: the same amount, converted by molar mass. Entries after “also recorded” stand apart in the source; their conditions may differ. Read-outs that look alike come from different tables or passages of the source.

DNA gyrase, sequence (P0AES4 whole entry, one chain of several): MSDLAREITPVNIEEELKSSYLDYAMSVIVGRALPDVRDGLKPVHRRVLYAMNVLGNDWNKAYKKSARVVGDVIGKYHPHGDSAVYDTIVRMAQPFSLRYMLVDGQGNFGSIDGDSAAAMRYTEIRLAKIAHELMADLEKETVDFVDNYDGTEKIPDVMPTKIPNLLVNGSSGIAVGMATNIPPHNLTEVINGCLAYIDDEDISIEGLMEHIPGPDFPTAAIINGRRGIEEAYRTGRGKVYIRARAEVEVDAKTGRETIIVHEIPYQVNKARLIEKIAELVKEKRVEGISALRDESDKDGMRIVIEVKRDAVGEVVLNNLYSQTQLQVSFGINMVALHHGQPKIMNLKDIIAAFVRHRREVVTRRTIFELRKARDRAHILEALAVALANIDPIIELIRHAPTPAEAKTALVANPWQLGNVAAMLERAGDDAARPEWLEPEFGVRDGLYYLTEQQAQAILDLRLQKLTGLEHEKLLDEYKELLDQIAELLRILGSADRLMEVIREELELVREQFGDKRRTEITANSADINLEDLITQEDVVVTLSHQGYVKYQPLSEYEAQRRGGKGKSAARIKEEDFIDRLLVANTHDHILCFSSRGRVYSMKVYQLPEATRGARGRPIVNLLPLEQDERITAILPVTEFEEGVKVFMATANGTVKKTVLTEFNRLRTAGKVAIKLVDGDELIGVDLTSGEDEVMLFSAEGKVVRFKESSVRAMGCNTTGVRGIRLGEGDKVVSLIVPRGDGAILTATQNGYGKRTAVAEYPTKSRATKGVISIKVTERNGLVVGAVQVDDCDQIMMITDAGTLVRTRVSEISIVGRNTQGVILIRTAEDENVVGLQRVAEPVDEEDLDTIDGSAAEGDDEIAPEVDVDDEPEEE

In general, MIC refers to the least concentration at which growth counts as inhibited. As to `COc1c(NC(=O)c2ccc(NC(=O)c3ccc(NC(=O)[C@H](CC#N)NC(=O)c4ccc(NC(=O)/C(C)=C/c5ccc(O)cc5)cc4)cc3)c(OC)c2O)ccc(C(=O)O)c1O` [Albicidin, reference compound], the minimum inhibitory concentration (MIC) in the experiment on E. faecium com15 was 2 µg/mL (≈ 2.37 µM); against S. aureus SH1000 it was 0.5 µg/mL (≈ 0.593 µM); in the experiment on K. pneumoniae 10031, >8 µg/mL; in the experiment with A. baumannii, 0.125 µg/mL (≈ 0.148 µM); in the experiment with P. aeruginosa it was 1 µg/mL (≈ 1.19 µM); against E. cloacae 13047, 8 µg/mL (≈ 9.49 µM). Besides, the values for the minimal inhibitory concentration (MIC) (in the experiment with E. coli 25922; against E. coli-BL21 (pET28c); in [1]) were 0.015 µg/mL (≈ 0.0178 µM), 0.0019 µg/mL (≈ 0.00225 µM) and 0.25 µg/mL (≈ 0.297 µM), respectively. Besides, the “Fold increase in MIC” value in [1] is given as 131 fold.
As to `O=C(O)c1cn(C2CC2)c2cc(N3CCNCC3)c(F)cc2c1=O` [Ciprofloxacin, reference compound], the minimal inhibitory concentration (MIC) is 0.5 µg/mL (≈ 1.51 µM) with E. faecium com15 (Enterococcus faecium, read-out: MIC); 0.5 µg/mL (≈ 1.51 µM) with S. aureus SH1000 (Staphylococcus aureus, read-out: MIC); 0.0075 µg/mL (≈ 0.0226 µM) in the experiment on E. coli 25922 (Escherichia coli, read-out: MIC).
On to `COc1c(NC(=O)c2ccc(NC(=O)[C@H](CC#N)NC(=O)c3ccc(NC(=O)/C(C)=C/c4ccc(O)cc4)cc3)c(OC)c2O)ccc(C(=O)Nc2ccc(C(=O)O)cc2)c1O` [PABA34], for which the minimal inhibitory concentration (MIC) with E. faecium com15 is >8 µg/mL; in the experiment on S. aureus SH1000 it was >8 µg/mL; in the experiment with K. pneumoniae 10031 it was >8 µg/mL; in the experiment on A. baumannii, 2 µg/mL (≈ 2.37 µM); against P. aeruginosa, 2 µg/mL (≈ 2.37 µM); against E. cloacae 13047, 2 µg/mL (≈ 2.37 µM). Further, the results for the minimum inhibitory concentration (MIC) (against E. coli-BL21 (pET28c); in [1]) were 0.0075 µg/mL (≈ 0.0089 µM) and 0.03 µg/mL (≈ 0.0356 µM), respectively. Also, the “Fold increase in MIC” value in experiment [1] was found to be 4 fold. For the same compound, in experiment [1], the “susceptibility to AlbD encoded resistance” value is recorded as “resistant to proteolytic cleavage by AlbD; also recorded: not susceptible to AlbD encoded resistance”. In addition, the “affinity for DNA gyrase” value at DNA gyrase was “retained a high affinity for DNA gyrase”.
Turning to `CO[C@@H](C(N)=O)[C@H](NC(=O)c1ccc(NC(=O)[C@@H](N)Cc2ccccc2)cc1)C(=O)Nc1ccc(C(=O)Nc2ccc(C(=O)Nc3ccc(C(=O)O)c(O)c3OC(C)C)c(O)c2OC(C)C)cc1` [PABA48], the figures for the “fold more potent than albicidin” value with E. faecium com15 (E. faecium), in the experiment with S. aureus SH1000 (S. aureus) and in the experiment with K. pneumoniae 10031 (K. pneumoniae) were 16 fold, 2 fold and > 64 fold, respectively. Further, the minimum inhibitory concentration (MIC) in the experiment with E. faecium com15 was 0.125 µg/mL (≈ 0.134 µM); with S. aureus SH1000, 0.25 µg/mL (≈ 0.268 µM); in the experiment on K. pneumoniae 10031, 0.125 µg/mL (≈ 0.134 µM); in the experiment with A. baumannii, 0.125 µg/mL (≈ 0.134 µM); against P. aeruginosa, >8 µg/mL; with E. cloacae 13047 it was >8 µg/mL. In addition, the values for the MIC (with E. coli 25922; with E. coli-BL21 (pET28c); in experiment [1]) were 0.125 µg/mL (≈ 0.134 µM), 0.06 µg/mL (≈ 0.0642 µM) and > 8 µg/mL, respectively. Also, the “MIC compared with albicidin” value in the experiment on A. baumannii is listed as “same MIC as albicidin”. For the same compound, in experiment [1], the “Fold increase in MIC” value is listed as >133 fold.
Take `CO[C@@H](C(N)=O)[C@H](NC(=O)c1ccc(NC(=O)[C@@H](N)Cc2ccc(O)cc2)cc1)C(=O)Nc1ccc(C(=O)Nc2ccc(C(=O)Nc3ccc(C(=O)O)cc3)c(O)c2OC(C)C)cc1` [PABA57]: the minimum inhibitory concentration (MIC) in the experiment on E. faecium com15 was >8 µg/mL; in the experiment with S. aureus SH1000, >8 µg/mL; in the experiment on K. pneumoniae 10031, 1 µg/mL (≈ 1.14 µM); in the experiment on A. baumannii, >8 µg/mL; with P. aeruginosa, >8 µg/mL; with E. cloacae 13047, >8 µg/mL. Further, the MIC was 2 µg/mL (≈ 2.28 µM) in the experiment with E. coli 25922, 0.5 µg/mL (≈ 0.571 µM) with E. coli-BL21 (pET28c) and > 64 µg/mL in [1]. The “Fold increase in MIC” value in [1] was >128 fold.
Take `CO[C@@H](C(N)=O)[C@H](NC(=O)c1ccc(NC(=O)[C@@H](N)Cc2ccc(O)cc2)cc1)C(=O)Nc1ccc(C(=O)Nc2ccc(C(=O)Nc3ccc(C(=O)O)c(O)c3OC(C)C)c(O)c2OC(C)C)cc1` [PABA70]: the MIC with E. faecium com15 is 1 µg/mL (≈ 1.05 µM); against S. aureus SH1000 it was 1 µg/mL (≈ 1.05 µM); in the experiment on K. pneumoniae 10031, 1 µg/mL (≈ 1.05 µM); in the experiment with A. baumannii, 4 µg/mL (≈ 4.21 µM); in the experiment on P. aeruginosa it was >8 µg/mL; with E. cloacae 13047 it was >8 µg/mL. For the same compound, the MIC was 2 µg/mL (≈ 2.11 µM) against E. coli 25922, 0.5 µg/mL (≈ 0.526 µM) in the experiment on E. coli-BL21 (pET28c) and > 64 µg/mL in [1]. Also, the “Fold increase in MIC” value in experiment [1] was >128 fold.
Compound `COc1c(NC(=O)/C(C)=C/c2ccc(O)cc2)ccc(C(=O)N[C@@H](CC#N)C(=O)Nc2ccc(C(=O)Nc3ccc(C(=O)Nc4ccc(C(=O)O)cc4)c(O)c3OC)c(O)c2OC)c1O` [PABA95-2] gave a minimum inhibitory concentration (MIC) against E. coli-BL21 (pET28c) of 0.06 µg/mL (≈ 0.0675 µM). Further, in experiment [1], the “Fold increase in MIC” value amounted to 8 fold, the “susceptibility to AlbD encoded resistance” value is “not susceptible to AlbD encoded resistance” and the MIC amounted to 0.5 µg/mL (≈ 0.563 µM).
For the compound `COc1c(NC(=O)/C(C)=C/c2ccc(O)cc2)ccc(C(=O)N[C@@H](CC#N)C(=O)Nc2ccc(C(=O)Nc3ccc(C(=O)Nc4ccc(C(=O)O)cc4)c(O)c3OC)cc2)c1O` [PABA95], the minimal inhibitory concentration (MIC) with E. faecium com15 is 8 µg/mL (≈ 9.49 µM); against S. aureus SH1000, 4 µg/mL (≈ 4.75 µM); in the experiment on K. pneumoniae 10031, >8 µg/mL; against A. baumannii, 0.5 µg/mL (≈ 0.593 µM); in the experiment with P. aeruginosa, 8 µg/mL (≈ 9.49 µM); against E. cloacae 13047, 8 µg/mL (≈ 9.49 µM). Further, the figures for the minimum inhibitory concentration (MIC) (with E. coli 25922; against E. coli-BL21 (pET28c); in experiment [1]) were 0.25 µg/mL (≈ 0.297 µM), 0.015 µg/mL (≈ 0.0178 µM) and 2 µg/mL (≈ 2.37 µM), respectively. Moreover, the “Fold increase in MIC” value in experiment [1] turned out to be 133 fold.

The values above are taken from US20250230188A1, “METAGENOME-GUIDED BIOSYNTHESIS AND COMPOUNDS AND METHODS OF USE THEREOF” (The Rockefeller University, priority 2022, published 2025).
